{
  "source": "PubChem BioAssay (NCI)",
  "assay_in_all_cases": "NCI-60 cell line screen, 48 h",
  "key": {"EKVX NSCLC": {"test_system": "EKVX NSCLC"}, "M14 melanoma": {"test_system": "M14 melanoma"}, "KM12 colon": {"test_system": "KM12 colon"}, "NCI-H226 lung": {"test_system": "NCI-H226 lung"}, "RPMI-8226 leukemia": {"test_system": "RPMI-8226 leukemia"}, "MDA-MB-231 breast": {"test_system": "MDA-MB-231 breast"}, "DU-145 prostate": {"test_system": "DU-145 prostate"}, "HCC-2998 colon": {"test_system": "HCC-2998 colon"}, "A498 renal": {"test_system": "A498 renal"}, "NCI-H460 lung": {"test_system": "NCI-H460 lung"}, "OVCAR-5 ovarian": {"test_system": "OVCAR-5 ovarian"}, "HL-60(TB) leukemia": {"test_system": "HL-60(TB) leukemia"}, "HOP-62 NSCLC": {"test_system": "HOP-62 NSCLC"}, "SK-MEL-28 melanoma": {"test_system": "SK-MEL-28 melanoma"}, "SNB-19 CNS": {"test_system": "SNB-19 CNS"}, "HS 578T breast": {"test_system": "HS 578T breast"}, "BT-549 breast": {"test_system": "BT-549 breast"}, "UACC-62 melanoma": {"test_system": "UACC-62 melanoma"}, "SR leukemia": {"test_system": "SR leukemia"}, "A549 NSCLC": {"test_system": "A549 NSCLC"}, "NCI-H23 lung": {"test_system": "NCI-H23 lung"}, "HCT-116 colon": {"test_system": "HCT-116 colon"}, "MALME-3M melanoma": {"test_system": "MALME-3M melanoma"}, "SF-268 CNS": {"test_system": "SF-268 CNS"}, "NCI-H522 lung": {"test_system": "NCI-H522 lung"}, "CAKI-1 renal": {"test_system": "CAKI-1 renal"}, "SW-620 colon": {"test_system": "SW-620 colon"}, "SK-OV-3 ovarian": {"test_system": "SK-OV-3 ovarian"}},
  "note": "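Grown in 96-well plates, cells were treated for 48 hours with each compound at five concentrations. Insufficient inhibition: endpoint recorded as highest concentration tested. GI50 marks 50% less growth. The concentration for full growth arrest is given as TGI.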",
  "data": [
    {"smiles": "COc1cc2cc(Oc3ccc(NC(=O)c4cccc(C(F)(F)F)c4)cc3)c(C)nc2cc1OC", "values": [
      {"measurement": "GI50", "setting": "EKVX NSCLC", "value": 4.39, "unit": "µM"},
      {"measurement": "TGI", "setting": "EKVX NSCLC", "value": "> 100", "unit": "µM"},
      {"measurement": "GI50", "setting": "M14 melanoma", "value": 4.02, "unit": "µM"},
      {"measurement": "TGI", "setting": "M14 melanoma", "value": "> 100", "unit": "µM"},
      {"measurement": "GI50", "setting": "KM12 colon", "value": 4.03, "unit": "µM"},
      {"measurement": "TGI", "setting": "KM12 colon", "value": "> 100", "unit": "µM"},
      {"measurement": "GI50", "setting": "NCI-H226 lung", "value": 7.84, "unit": "µM"},
      {"measurement": "TGI", "setting": "NCI-H226 lung", "value": "> 100", "unit": "µM"},
      {"measurement": "GI50", "setting": "RPMI-8226 leukemia", "value": 3.67, "unit": "µM"},
      {"measurement": "TGI", "setting": "RPMI-8226 leukemia", "value": "> 100", "unit": "µM"},
      {"measurement": "GI50", "setting": "MDA-MB-231 breast", "value": 3.38, "unit": "µM"},
      {"measurement": "TGI", "setting": "MDA-MB-231 breast", "value": 46.6, "unit": "µM"},
      {"measurement": "GI50", "setting": "DU-145 prostate", "value": 8.48, "unit": "µM"},
      {"measurement": "TGI", "setting": "DU-145 prostate", "value": "> 100", "unit": "µM"},
      {"measurement": "GI50", "setting": "HCC-2998 colon", "value": 8.03, "unit": "µM"},
      {"measurement": "TGI", "setting": "HCC-2998 colon", "value": "> 100", "unit": "µM"},
      {"measurement": "GI50", "setting": "A498 renal", "value": 1.78, "unit": "µM"},
      {"measurement": "TGI", "setting": "A498 renal", "value": 65, "unit": "µM"},
      {"measurement": "GI50", "setting": "NCI-H460 lung", "value": 4.07, "unit": "µM"},
      {"measurement": "TGI", "setting": "NCI-H460 lung", "value": "> 100", "unit": "µM"},
      {"measurement": "GI50", "setting": "OVCAR-5 ovarian", "value": "> 100", "unit": "µM"},
      {"measurement": "TGI", "setting": "OVCAR-5 ovarian", "value": "> 100", "unit": "µM"},
      {"measurement": "GI50", "setting": "HL-60(TB) leukemia", "value": 3.84, "unit": "µM"},
      {"measurement": "TGI", "setting": "HL-60(TB) leukemia", "value": "> 100", "unit": "µM"},
      {"measurement": "GI50", "setting": "HOP-62 NSCLC", "value": 21.6, "unit": "µM"},
      {"measurement": "TGI", "setting": "HOP-62 NSCLC", "value": "> 100", "unit": "µM"},
      {"measurement": "GI50", "setting": "SK-MEL-28 melanoma", "value": 6.61, "unit": "µM"},
      {"measurement": "TGI", "setting": "SK-MEL-28 melanoma", "value": "> 100", "unit": "µM"},
      {"measurement": "GI50", "setting": "SNB-19 CNS", "value": 8.09, "unit": "µM"},
      {"measurement": "TGI", "setting": "SNB-19 CNS", "value": "> 100", "unit": "µM"},
      {"measurement": "GI50", "setting": "HS 578T breast", "value": 2.97, "unit": "µM"},
      {"measurement": "TGI", "setting": "HS 578T breast", "value": 58.4, "unit": "µM"},
      {"measurement": "GI50", "setting": "BT-549 breast", "value": 3.31, "unit": "µM"},
      {"measurement": "TGI", "setting": "BT-549 breast", "value": "> 100", "unit": "µM"},
      {"measurement": "GI50", "setting": "UACC-62 melanoma", "value": 5.27, "unit": "µM"},
      {"measurement": "TGI", "setting": "UACC-62 melanoma", "value": "> 100", "unit": "µM"},
      {"measurement": "GI50", "setting": "SR leukemia", "value": 3.25, "unit": "µM"},
      {"measurement": "TGI", "setting": "SR leukemia", "value": "> 100", "unit": "µM"},
      {"measurement": "GI50", "setting": "A549 NSCLC", "value": 4.28, "unit": "µM"},
      {"measurement": "TGI", "setting": "A549 NSCLC", "value": "> 100", "unit": "µM"},
      {"measurement": "GI50", "setting": "NCI-H23 lung", "value": 4.11, "unit": "µM"},
      {"measurement": "TGI", "setting": "NCI-H23 lung", "value": "> 100", "unit": "µM"},
      {"measurement": "GI50", "setting": "HCT-116 colon", "value": 3.22, "unit": "µM"},
      {"measurement": "TGI", "setting": "HCT-116 colon", "value": "> 100", "unit": "µM"},
      {"measurement": "GI50", "setting": "MALME-3M melanoma", "value": "> 100", "unit": "µM"},
      {"measurement": "TGI", "setting": "MALME-3M melanoma", "value": "> 100", "unit": "µM"},
      {"measurement": "GI50", "setting": "SF-268 CNS", "value": "> 100", "unit": "µM"},
      {"measurement": "TGI", "setting": "SF-268 CNS", "value": "> 100", "unit": "µM"},
      {"measurement": "GI50", "setting": "NCI-H522 lung", "value": 2.81, "unit": "µM"},
      {"measurement": "TGI", "setting": "NCI-H522 lung", "value": "> 100", "unit": "µM"},
      {"measurement": "GI50", "setting": "CAKI-1 renal", "value": 2.75, "unit": "µM"},
      {"measurement": "TGI", "setting": "CAKI-1 renal", "value": "> 100", "unit": "µM"},
      {"measurement": "GI50", "setting": "SW-620 colon", "value": 10.2, "unit": "µM"},
      {"measurement": "TGI", "setting": "SW-620 colon", "value": "> 100", "unit": "µM"},
      {"measurement": "GI50", "setting": "SK-OV-3 ovarian", "value": "> 100", "unit": "µM"},
      {"measurement": "TGI", "setting": "SK-OV-3 ovarian", "value": "> 100", "unit": "µM"}
    ]}
  ]
}
